Columns and labels:
[1] = Tmax in ICR mouse at 20 mg/kg, po by LC-MS/MS analysis; type: ADME, organism-based; conditions: in vivo
Histone deacetylase 1 = Histone deacetylase 1 (Homo sapiens, UniProt Q13547); test: Inhibition of HDAC1 (unknown origin) assessed as release of 7-amino-4-methylcoumarin incubated in room temperature for 15 min measured by Spectra max microtitre plate reader
[2] = Elimination rate constant in ICR mouse at 20 mg/kg, po up to 24 hrs by LC-MS/MS analysis; type: ADME, organism-based; conditions: in vivo
MC-38 = test: Antiproliferative activity against mouse MC38 cells measured after 72 hrs by CCK8 assay; type: functional; conditions: Mus musculus, MC-38
[3] = AUC (0 to t) in ICR mouse at 20 mg/kg, po by LC-MS/MS analysis; type: ADME, organism-based; set-up: dose 20 mg/kg; conditions: in vivo
[4] = AUC (0 to infinity) in ICR mouse at 20 mg/kg, po by LC-MS/MS analysis; type: ADME, organism-based; set-up: time infinity, route oral, dose 20 mg/kg; conditions: in vivo
[5] = MRT in ICR mouse at 20 mg/kg, po by LC-MS/MS analysis; type: ADME, organism-based; conditions: in vivo
[6] = Cmax in ICR mouse at 20 mg/kg, po by LC-MS/MS analysis; type: ADME, organism-based; set-up: route oral, dose 20 mg/kg; conditions: in vivo
CT26 = test: Antiproliferative activity against mouse CT26 cells measured after 72 hrs by CCK8 assay; type: functional; conditions: Mus musculus, CT26
Adenosine receptor A2a = Adenosine receptor A2a (Homo sapiens, UniProt P29274); test: Displacement of [3H]SCH58261 from adenosine A2A receptor membrane (unknown origin) measured after 60 mins by scintillation counting analysis; type: cell membranes
[7] = Half life in ICR mouse at 20 mg/kg, po by LC-MS/MS analysis; type: ADME, organism-based; conditions: in vivo
[8] = molecular target: T1, Protein deacetylase HDAC6 (Homo sapiens, UniProt Q9UBN7); test: Inhibition of HDAC6 (unknown origin) assessed as release of 7-amino-4-methylcoumarin incubated in room temperature for 15 min measured by Spectra max microtitre plate reader
T1 sequence (Q9UBN7 whole entry): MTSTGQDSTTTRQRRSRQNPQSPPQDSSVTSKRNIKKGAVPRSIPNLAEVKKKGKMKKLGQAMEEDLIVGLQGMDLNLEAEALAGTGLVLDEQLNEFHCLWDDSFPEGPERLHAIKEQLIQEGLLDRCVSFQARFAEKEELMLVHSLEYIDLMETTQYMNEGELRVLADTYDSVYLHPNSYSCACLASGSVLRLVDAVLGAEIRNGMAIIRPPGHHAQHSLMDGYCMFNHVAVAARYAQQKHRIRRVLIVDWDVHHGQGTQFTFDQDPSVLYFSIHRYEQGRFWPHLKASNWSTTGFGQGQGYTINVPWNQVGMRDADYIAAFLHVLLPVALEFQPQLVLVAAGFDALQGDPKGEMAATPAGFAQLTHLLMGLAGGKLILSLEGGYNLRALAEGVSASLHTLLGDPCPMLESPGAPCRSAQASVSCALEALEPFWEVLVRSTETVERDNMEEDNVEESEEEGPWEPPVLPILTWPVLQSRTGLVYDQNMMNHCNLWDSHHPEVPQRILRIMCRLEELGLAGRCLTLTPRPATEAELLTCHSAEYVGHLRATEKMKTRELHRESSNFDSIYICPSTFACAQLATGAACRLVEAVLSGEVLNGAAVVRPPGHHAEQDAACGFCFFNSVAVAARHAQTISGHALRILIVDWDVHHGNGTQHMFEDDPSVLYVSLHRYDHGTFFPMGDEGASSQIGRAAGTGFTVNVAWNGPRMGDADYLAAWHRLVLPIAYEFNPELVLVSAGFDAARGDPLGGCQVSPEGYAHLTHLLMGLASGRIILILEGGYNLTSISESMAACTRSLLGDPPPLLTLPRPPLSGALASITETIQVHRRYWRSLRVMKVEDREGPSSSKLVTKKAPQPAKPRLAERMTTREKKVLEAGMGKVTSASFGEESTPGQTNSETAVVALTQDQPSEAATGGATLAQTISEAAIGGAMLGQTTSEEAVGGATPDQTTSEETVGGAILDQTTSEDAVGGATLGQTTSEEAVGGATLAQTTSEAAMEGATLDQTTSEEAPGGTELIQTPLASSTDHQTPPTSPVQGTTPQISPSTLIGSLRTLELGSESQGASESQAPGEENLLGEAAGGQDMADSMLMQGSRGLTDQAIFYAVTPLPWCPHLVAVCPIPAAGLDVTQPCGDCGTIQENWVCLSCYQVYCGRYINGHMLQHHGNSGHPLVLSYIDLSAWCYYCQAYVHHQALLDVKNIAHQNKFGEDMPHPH

Adenosine receptor A3 = molecular target: T2, Adenosine receptor A3 (Homo sapiens, UniProt P0DMS8); test: Displacement of [3H]DPCPX from human adenosine A3 receptor membrane (unknown origin) measured after 60 mins by scintillation counting analysis; type: cell membranes
T2 sequence (P0DMS8 whole entry): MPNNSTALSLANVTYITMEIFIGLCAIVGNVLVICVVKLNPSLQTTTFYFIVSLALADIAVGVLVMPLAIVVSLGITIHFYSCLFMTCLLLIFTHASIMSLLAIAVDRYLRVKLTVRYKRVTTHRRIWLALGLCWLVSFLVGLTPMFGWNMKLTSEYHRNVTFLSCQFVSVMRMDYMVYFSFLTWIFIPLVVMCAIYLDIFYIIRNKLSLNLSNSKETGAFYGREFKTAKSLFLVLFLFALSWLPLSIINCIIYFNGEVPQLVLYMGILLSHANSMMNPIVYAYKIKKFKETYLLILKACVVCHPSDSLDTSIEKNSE

Sequence of Histone deacetylase 1 (Q13547 whole entry): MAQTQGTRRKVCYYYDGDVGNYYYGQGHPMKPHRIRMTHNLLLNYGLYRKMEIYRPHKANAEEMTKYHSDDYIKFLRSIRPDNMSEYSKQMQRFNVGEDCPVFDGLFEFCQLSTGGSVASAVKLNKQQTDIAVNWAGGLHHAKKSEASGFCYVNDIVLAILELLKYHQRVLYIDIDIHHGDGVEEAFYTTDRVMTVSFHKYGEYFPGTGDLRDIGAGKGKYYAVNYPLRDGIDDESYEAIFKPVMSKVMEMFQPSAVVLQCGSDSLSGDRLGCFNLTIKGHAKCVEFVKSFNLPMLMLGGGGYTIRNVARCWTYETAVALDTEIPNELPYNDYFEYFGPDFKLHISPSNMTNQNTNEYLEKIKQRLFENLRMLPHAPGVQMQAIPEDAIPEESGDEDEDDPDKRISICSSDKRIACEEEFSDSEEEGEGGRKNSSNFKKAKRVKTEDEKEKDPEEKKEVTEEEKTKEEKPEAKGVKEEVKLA
Sequence of Adenosine receptor A2a (P29274 whole entry): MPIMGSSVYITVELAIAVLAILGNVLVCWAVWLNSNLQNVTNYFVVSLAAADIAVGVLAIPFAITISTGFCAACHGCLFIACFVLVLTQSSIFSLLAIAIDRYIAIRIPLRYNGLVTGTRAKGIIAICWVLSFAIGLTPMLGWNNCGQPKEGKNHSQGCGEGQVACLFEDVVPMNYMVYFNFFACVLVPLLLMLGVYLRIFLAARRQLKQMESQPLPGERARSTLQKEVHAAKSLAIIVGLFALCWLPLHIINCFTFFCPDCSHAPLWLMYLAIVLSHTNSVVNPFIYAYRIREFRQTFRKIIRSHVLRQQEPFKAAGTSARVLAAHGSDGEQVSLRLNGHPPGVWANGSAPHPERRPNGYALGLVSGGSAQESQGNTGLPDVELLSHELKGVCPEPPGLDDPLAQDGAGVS

Tmax [1] [h]	IC50 (Histone deacetylase 1) [nM]	k el at 24 h [2] [s⁻¹]	AUC(0-t) [3] [ng·h/mL]	AUC(0-inf) [4] [ng·h/mL]	MRT [5] [h]	Cmax [6] [ng/mL]	GI50 (CT26) [nM]	Ki (Adenosine receptor A2a) [nM]	half-life [7] [h]	IC50 [8] [nM]	Ki (Adenosine receptor A3) [nM]	SMILES	GI50 (MC-38) [nM]
0.25	113	5.67e-05	588	602	2.44	598	6900	6.5	4.08	–	–	N#Cc1cccc(-c2nc3c4cnn(CCc5ccc(C(=O)Nc6ccccc6N)cc5)c4nc(N)n3n2)c1	5400
–	11.5	–	–	–	–	–	> 100000	11.3	–	5.9	–	Nc1nc(NCCc2ccc(NC(=O)CCCCCCC(=O)NO)cc2)nc2nc(-c3ccco3)nn12	> 100000
–	5	–	–	–	–	–	17500	27	–	9	–	Nc1nc(NCc2ccc(/C=C/C(=O)NO)cc2)nc2nc(-c3ccco3)nn12	20700
–	86.7	–	–	–	–	–	25900	0.95	–	8	–	Nc1nc(NCCc2ccc(OCCCCCC(=O)NO)cc2)nc2nc(-c3ccco3)nn12	15000
–	–	–	–	–	–	–	> 100000	–	–	–	> 10000	Nc1nc2c(cnn2CCc2ccccc2)c2nc(-c3ccco3)nn12 [SCH-58261]	> 100000
–	3.8	–	–	–	–	–	1400	10.1	–	6.6	–	Nc1nc2c(cnn2CCCCCCC(=O)NO)c2nc(-c3ccco3)nn12	1400
–	8	–	–	–	–	–	> 100000	4.9	–	5.9	–	Nc1nc2c(cnn2CCc2ccc(NC(=O)CCCCCCC(=O)NO)cc2)c2nc(-c3ccco3)nn12	> 100000
–	23.7	–	–	–	–	–	> 100000	8.4	–	4.9	–	Nc1nc(NCCCc2ccc(C(=O)NO)cc2)nc2nc(-c3ccco3)nn12	> 100000
–	7.7	–	–	–	–	–	31600	21.2	–	10.6	–	Nc1nc(NCCCCCCC(=O)NO)nc2nc(-c3ccco3)nn12	35700
–	7.4	–	–	–	–	–	> 100000	10.2	–	3.2	–	Nc1nc(NCCOc2ccc(C(=O)NO)cc2)nc2nc(-c3ccco3)nn12	> 100000
–	27	–	–	–	–	–	17800	77.8	–	15	–	Nc1nc2c(cnn2CCCCCC(=O)NO)c2nc(-c3ccco3)nn12	14000
–	59.5	–	–	–	–	–	25200	3.9	–	> 10000	–	Nc1ccccc1NC(=O)c1ccc(CCCNc2nc(N)n3nc(-c4ccco4)nc3n2)cc1	25400
–	84	–	–	–	–	–	11900	3.7	–	32	–	Nc1nc2c(cnn2CCN2CCC(c3ccc(C(=O)NO)cc3)CC2)c2nc(-c3ccco3)nn12	16900
–	137	–	–	–	–	–	59100	3.9	–	> 10000	–	Nc1ccccc1NC(=O)c1ccc(CCNc2nc(N)n3nc(-c4ccco4)nc3n2)cc1	48200
–	173	–	–	–	–	–	44000	9.6	–	> 10000	–	Nc1cc(F)ccc1NC(=O)c1ccc(CCNc2nc(N)n3nc(-c4ccco4)nc3n2)cc1	25900
–	65.7	–	–	–	–	–	16500	34.8	–	> 10000	–	Nc1ccccc1NC(=O)c1ccc(CNc2nc(N)n3nc(-c4ccco4)nc3n2)cc1	14100
–	68.5	–	–	–	–	–	32400	4.9	–	> 10000	–	Nc1ccccc1NC(=O)c1ccc(OCCNc2nc(N)n3nc(-c4ccco4)nc3n2)cc1	36900
